Reference: the NIST ThermoML archive (doi:10.1021/acs.jced.5b01043)

Columns and labels:
[1] = wn = mass fraction of the nth substance listed; details: 100 kPa, Liquid, Vibrating tube method
[2] = refractive index (Na D-line) (dimensionless); wn = mass fraction of the nth substance listed; details: 100 kPa, Liquid, Standard Abbe refractometry

CCN(C=O)CC [N,N-diethylformamide] + [Cl-].[Na+]
Details	mass density, [1] [kg/m3]	refractive index, [2]
288.15 K, w2 = 0.0013	912.57	1.43642
298.15 K, w2 = 0.0009	904.23	1.43203
308.15 K, w2 = 0.0005	896.38	1.42776

[Cl-].[Rb+] [rubidium chloride] + O
Details	mass density, [1] [kg/m3]	refractive index, [2]
288.15 K, w1 = 0.4652	1482.6	1.38751
298.15 K, w1 = 0.4823	1495.24	1.38769
308.15 K, w1 = 0.5033	1520.16	1.38939

CCN(C=O)CC [N,N-diethylformamide] + O
298.15 K
Details	mass density, [1] [kg/m3]	refractive index, [2]
w1 = 0.009925	996.45	1.33379
w1 = 0.04	995.04	1.33758
w1 = 0.06998	993.7	1.34136
w1 = 0.09919	992.49	1.34512
w1 = 0.129	991.3	1.34898
w1 = 0.16	989.97	1.35302
w1 = 0.1897	988.8	1.35684

CCN(C=O)CC [N,N-diethylformamide] + [Cl-].[K+]
Details	mass density, [1] [kg/m3]	refractive index, [2]
288.15 K, w2 = 0.0015	911.47	1.43618
298.15 K, w2 = 0.0009	903.51	1.43281
308.15 K, w2 = 0.0005	896.68	1.42872

CCN(C=O)CC [N,N-diethylformamide] + [Cl-].[Rb+]
Details	mass density, [1] [kg/m3]	refractive index, [2]
288.15 K, w2 = 0.0016	910.95	1.43675
298.15 K, w2 = 0.0011	902.43	1.43253
308.15 K, w2 = 0.0008	894.54	1.42819

CCN(C=O)CC [N,N-diethylformamide] + [Cl-].[Cs+]
288.15 K, w2 = 0.0013
Details	mass density [kg/m3]	refractive index
[1]	910.38	–
[2]	–	1.43686

[Cl-].[Cs+] [cesium chloride] + O
288.15 K, w1 = 0.6406
Details	mass density [kg/m3]	refractive index
[1]	1893.82	–
[2]	–	1.41772

[Cl-].[Na+] [sodium chloride] + O
Details	mass density, [1] [kg/m3]	refractive index, [2]
288.15 K, w1 = 0.2631	1202.37	1.381
298.15 K, w1 = 0.265	1197.1	1.37938
308.15 K, w1 = 0.2666	1193.13	1.37784

[Cl-].[K+] [potassium chloride] + O
Details	mass density, [1] [kg/m3]	refractive index, [2]
288.15 K, w1 = 0.2483	1169.18	1.36809
298.15 K, w1 = 0.2668	1174.11	1.36838
308.15 K, w1 = 0.2768	1184.11	1.36932
